Patent US20240334934A1, “FUNGICIDE MIXTURE” (priority 2021, published 2024)
Where two headings read alike, the source gives them in different places.

How the values were obtained:
[1] = tested on: a variety of fungal strains; conditions: statement of WO2015191789, cited from earlier work
[2] = tested on: Gibberella zeae (Fusarium graminearum); assay: microbe, parasite or virus in culture; assay type: cell-based; conditions: read-out: % Efficacy
Tilletia tritici K5212 = assay: Efficacy of purified CtmC alone in-vitro, 96 well plate, OD 620 nm; assay type: cell-based; conditions: CtmC 10 ppm
Septoria glycines K5204 = assay: as above; assay type: cell-based; conditions: CtmC 10 ppm
Protocol: (§1) CtmC was dissolved in DMSO (Dimethylsulfoxid) to a final concentration of 1000 ppm to create a stock solution. A second dilutions of 1:10 was made in water+0.025% Tween 20. From this second dilution 10 μl are dispensed into a 96 well plate. To each well, 90 μl of medium (PDB—potato dextrose broth, plus 0.3% agar) with fungal spores are added and mixed, resulting in final CtmC concentrations of 10 ppm. All wells containing CtmC also contain DMSO (1%) and Tween 20 (0.0025%). In the following table 4 some of the species were tested using several distinct isolates (internal strain number indicated) to understand variability among different isolates of the same species sampled in different locations, producing different mycotoxins (genus Fusarium), or expressing various tolerances to fungicides of the SDHI (Succinate Dehydrogenase Inhibitor), SBI (Sterol Biosynthesis Inhibitors) and/or QoI (quinone outside inhibitors) classes (example: Zymoseptoria tritici). Different isolates had variable inoculum density and number of biological repicas, as indicated.

Fusarium culmorum K5488 = assay: as above; assay type: cell-based; conditions: CtmC 10 ppm
Protocol: as §1

[3] = tested on: Gibberella avenacea K6939; assay: as above; assay type: cell-based; conditions: CtmC 10 ppm
Protocol: as §1

[4] = tested on: Colletotrichum orbiculare K5770; assay: as above; assay type: cell-based; conditions: CtmC 10 ppm
Protocol: as §1

[5] = tested on: Fusarium tricinctum K7454; assay: as above; assay type: cell-based; conditions: CtmC 10 ppm
Protocol: as §1

[6] = tested on: Cercospora kikuchii K6080; assay: as above; assay type: cell-based; conditions: CtmC 10 ppm
Protocol: as §1

Fusarium culmorum K6937 = assay: as above; assay type: cell-based; conditions: CtmC 10 ppm
Protocol: as §1

Microdochium majus K7482 = assay: as above; assay type: cell-based; conditions: CtmC 10 ppm
Protocol: as §1

[7] = tested on: Gibberella fujikuroi K5299; assay: as above; assay type: cell-based; conditions: CtmC 10 ppm
Protocol: as §1

[8] = tested on: Zymoseptoria tritici K7953; assay: as above; assay type: cell-based; conditions: CtmC 10 ppm
Protocol: as §1

Fusarium poae K8039 = assay: as above; assay type: cell-based; conditions: CtmC 10 ppm
Protocol: as §1

[9] = tested on: Monographella nivalis K7484; assay: as above; assay type: cell-based; conditions: CtmC 10 ppm
Protocol: as §1

[10] = tested on: Cochliobolus sativus K5817; assay: as above; assay type: cell-based; conditions: CtmC 10 ppm
Protocol: as §1

[11] = tested on: Rhynchosporium secalis K5917; assay: as above; assay type: cell-based; conditions: CtmC 10 ppm
Protocol: as §1

Cercospora sojina K5703 = assay: as above; assay type: cell-based; conditions: CtmC 10 ppm
Protocol: as §1

[12] = tested on: Ustilago segetum var. tritici K5349; assay: as above; assay type: cell-based; conditions: CtmC 10 ppm
Protocol: as §1

[13] = tested on: Corynespora cassiicola K5577; assay: as above; assay type: cell-based; conditions: CtmC 10 ppm
Protocol: as §1

[14] = tested on: Ramularia collo-cygni K6218; assay: as above; assay type: cell-based; conditions: CtmC 10 ppm
Protocol: as §1

[15] = tested on: Fusarium tricinctum K7452; assay: as above; assay type: cell-based; conditions: CtmC 10 ppm
Protocol: as §1

[16] = tested on: Zymoseptoria tritici K6105; assay: as above; assay type: cell-based; conditions: CtmC 10 ppm
Protocol: as §1

[17] = tested on: Colletotrichum lindemuthianum K5893; assay: as above; assay type: cell-based; conditions: CtmC 10 ppm
Protocol: as §1

Fusarium avenaceum K6940 = assay: as above; assay type: cell-based; conditions: CtmC 10 ppm
Protocol: as §1

Fusarium culmorum K8196 = assay: as above; assay type: cell-based; conditions: CtmC 10 ppm
Protocol: as §1

[18] = tested on: Venturia inaequalis K6222; assay: as above; assay type: cell-based; conditions: CtmC 10 ppm
Protocol: as §1

[19] = tested on: Zymoseptoria tritici K6318; assay: as above; assay type: cell-based; conditions: CtmC 10 ppm
Protocol: as §1

[20] = tested on: Zymoseptoria tritici K6420; assay: as above; assay type: cell-based; conditions: CtmC 10 ppm
Protocol: as §1

## C=C1NC(=O)CNC(=O)[C@H](CCCCN)NC(=O)[C@@]2(C)NC(=O)/C(=C/C)NC(=O)[C@H]3CSC(=N3)[C@@H](CC(N)=O)CC(=O)c3ccc(nc3[C@@H](C)NC(=O)[C@@H]3CCCN3C1=O)-c1nc(cs1)C1=N[C@H](CS1)C(=O)NC(=C)c1nc(cs1)-c1nc(cs1)C1=N[C@@H](CS1)C(=O)N[C@@H](C(=O)O)CS2 [CtmC, cyclothiazomycin C]
[1]; listed as Cyclothiazomycin C
  growth inhibitory action toward a variety of fungal strains: no fungal inhibitory action
[1]; listed as cyclothiazomycin C
  growth inhibitory action toward a variety of fungal strains: none was observed
[2]
  Emax at 20 ppm: 37%
Tilletia tritici K5212
  efficacy (%): 96%
Tilletia tritici K5212; blank 0.046, untreated 0.451
  optical density at 620 nm: 0.062
Septoria glycines K5204
  efficacy (%): 81%
Septoria glycines K5204; blank 0.044, untreated 0.414
  optical density at 620 nm: 0.115
Fusarium culmorum K5488
  efficacy (%): 52%
Fusarium culmorum K5488; blank 0.046, untreated 0.374
  optical density at 620 nm: 0.203
[3]
  efficacy (%): 82%
[3]; blank 0.055, untreated 0.675
  optical density at 620 nm: 0.165
[4]
  efficacy (%): 56%
[4]; blank 0.035, untreated 0.449
  optical density at 620 nm: 0.218
[5]
  efficacy (%): 65%
[5]; blank 0.050, untreated 0.463
  optical density at 620 nm: 0.195
[6]
  efficacy (%): 100%
[6]; blank 0.044, untreated 0.215
  optical density at 620 nm: 0.043
Fusarium culmorum K6937
  efficacy (%): 44%
Fusarium culmorum K6937; blank 0.052, untreated 0.528
  optical density at 620 nm: 0.319
Microdochium majus K7482
  efficacy (%): 96%
Microdochium majus K7482; blank 0.050, untreated 0.228
  optical density at 620 nm: 0.057
[7]
  efficacy (%): 47%
[7]; blank 0.053, untreated 0.941
  optical density at 620 nm: 0.528
[8]
  efficacy (%): 77%
[8]; blank 0.055, untreated 0.235
  optical density at 620 nm: 0.096
Fusarium poae K8039
  efficacy (%): 62%
Fusarium poae K8039; blank 0.050, untreated 0.619
  optical density at 620 nm: 0.267
[9]
  efficacy (%): 90%
[9]; blank 0.054, untreated 0.233
  optical density at 620 nm: 0.073
[10]
  efficacy (%): 92%
[10]; blank 0.044, untreated 0.701
  optical density at 620 nm: 0.095
[11]
  efficacy (%): 95%
[11]; blank 0.046, untreated 0.378
  optical density at 620 nm: 0.062
Cercospora sojina K5703
  efficacy (%): 54%
Cercospora sojina K5703; blank 0.047, untreated 0.357
  optical density at 620 nm: 0.188
[12]
  efficacy (%): 97%
[12]; blank 0.044, untreated 0.304
  optical density at 620 nm: 0.051
[13]
  efficacy (%): 86%
[13]; blank 0.047, untreated 0.427
  optical density at 620 nm: 0.100
[14]
  efficacy (%): 60%
[14]; blank 0.043, untreated 0.231
  optical density at 620 nm: 0.119
[15]
  efficacy (%): 68%
[15]; blank 0.052, untreated 0.498
  optical density at 620 nm: 0.197
[16]
  efficacy (%): 99%
[16]; blank 0.044, untreated 0.354
  optical density at 620 nm: 0.046
[17]
  efficacy (%): 45%
[17]; blank 0.046, untreated 0.373
  optical density at 620 nm: 0.225
Fusarium avenaceum K6940
  efficacy (%): 52%
Fusarium avenaceum K6940; blank 0.054, untreated 0.410
  optical density at 620 nm: 0.225
Fusarium culmorum K8196
  efficacy (%): 48%
Fusarium culmorum K8196; blank 0.055, untreated 0.701
  optical density at 620 nm: 0.388
[18]
  efficacy (%): 86%
[18]; blank 0.044, untreated 0.320
  optical density at 620 nm: 0.082
[19]
  efficacy (%): 98%
[19]; blank 0.054, untreated 0.253
  optical density at 620 nm: 0.059
[20]
  efficacy (%): 93%
[20]; blank 0.048, untreated 0.257
  optical density at 620 nm: 0.064
